# Assay results taken from EP0728738A1, “Tetralinyl- and indanyl-ethylamides having melatonergic activity” (BRISTOL-MYERS SQUIBB COMPANY, priority 1995, dated 1996).
# Columns and labels:
# ML1 Receptor = assay: Melatonergic binding at the ML1 receptor in rabbit tissue (2-[125I]-iodomelatonin displacement, parietal cortex homogenate); conditions: 2-[125I]-iodomelatonin 44pM, 37°C for 1 hour, read-out: Binding Affinity IC50
# Protocol: Example 46: Measurement of Melatonergic Binding at the ML1 Receptor in Rabbit Tissue
# • 1. Reagents • (a) 50mM Tris buffer containing 12.5 mM MgCl2, and 2mM EDTA (pH 7.4 at 37 °C). • (b) Wash buffer: 20mM Tris base containing 2mM MgCl2 (pH 7.4 at room temperature). • (c) 6-Chloromelatonin (10-^5M final concentration). • (d) 2-[^125I]-iodomelatoin, 44pM final concentration Source: NEN • 2. Tissue preparation. Male New Zealand white rabbits (Hazelton Research) are decapitated, the brains are rapidly removed and chilled. The parietal cortex is crudely dissected and frozen on dry ice with tissue stored at - 80 °C until assayed. Tissue is weighed and thawed in 20 mls ice cold Tris buffer (a) and homogenized by treatment with a polytron for 10 seconds at setting 17. Ice cold Tris (a) is added to a volume of 40 mls. The homogenate is centrifuged. The resulting supernatant is decanted and discarded. The pellet is rehomogenized in an additional 20 mls of Tris, diluted and centrifuged. The supernatant is decanted and discarded. The resulting pellet is homogenized in 20 volumes of Tris per gram of original tissue (a 1:20 homogenate), chilled, and held on ice until assayed. • 3. Incubation: 37 °C for 1 hour. Reaction is terminated by filtration. • 4. […] References: Stankov, B., Cozzi, B., Lucini, V., Fumagalli, P., Scaglione, F. and F. Fraschini. Characterization and mapping of melatonin receptors in the brain of three mammalian species: Rabbit, horse, and sheep. Neuroendocrinology 53: 214-221, 1991.
# [1] = target: T1, Human Melatonin Receptor ML1A (Homo sapiens, UniProt P48039); assay: Melatonergic binding at the human melatonin receptor ML1A (2-[125I]-iodomelatonin displacement, membranes of transfected COS-1 cells); conditions: human ML1A in COS-1 cell membranes, 2-[125I]-iodomelatonin 100 pM, 37°C for 1 hour; read-out: Binding Affinity IC50
# T1 construct: expressed in transfected cells; host or cells: COS-1 cells, pcDNAI vector, DEAE-dextran transfection
# T1 sequence (P48039 whole entry): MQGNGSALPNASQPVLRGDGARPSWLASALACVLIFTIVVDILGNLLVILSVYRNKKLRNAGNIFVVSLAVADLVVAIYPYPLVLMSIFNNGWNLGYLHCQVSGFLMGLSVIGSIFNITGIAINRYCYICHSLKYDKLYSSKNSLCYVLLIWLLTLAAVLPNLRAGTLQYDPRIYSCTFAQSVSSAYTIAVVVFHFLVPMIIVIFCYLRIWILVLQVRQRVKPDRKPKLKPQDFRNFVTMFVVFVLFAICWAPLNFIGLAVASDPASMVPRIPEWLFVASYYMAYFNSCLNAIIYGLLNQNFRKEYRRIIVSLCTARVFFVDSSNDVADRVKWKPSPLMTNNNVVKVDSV
# Protocol: Example 47: Measurement of Melatonergic Binding at the Human Melatonin Receptor ML1A
# • 1. Reagents: • (a) 50mM Tris buffer containing 12.5 mM MgCl2, and 2mM EDTA, pH 7.4 at 37 °C with concentrated HCl. • (b) Wash buffer: 20mM Tris base containing 2mM MgCl2. pH 7.4 at room temperature. • (c) 10^-4M 6-Chloromelatonin (10-^5M final concentration). • (d) 2-[^125I]-iodomelatonin, 100 pM final concentration Source: NEN • 2. Membrane preparation: The cDNA (human ML1A) in pcDNAI was introduced into COS-1 cells by the DEAE-dextran method. Three days after transfection, the media was removed, the plates washed with phosphate buffered saline, the cells removed using Hank's balanced salt solution and pelleted. For preparing membrane homogenates, pellets are thawed on ice, and resuspended in TME buffer, 50 mM Tris base, 12.5 mM MgCl2, 1 mM EDTA (pH7.4 at 37°C with concentrated HCL), supplemented with 10 µg/ml aprotinin and leupeptin, and 100 µM phenylmethlysulfonylfluoride. The cells were then homogenized using a dounce homogenizer, and centrifuged. The resulting pellet was resuspended with a dounce homogenizer in TME and frozen. On the day of assay, the small aliquot was thawed on ice and resuspended in TME buffer. • 3. Incubation: 37 °C for 1 hour. Reaction is terminated by filtration. • 4. […] Reference: Reppert, S. M., Weaver, D. R., and Ebisawa, R. (1994), Neuron, 13, 1177-1185.
SMILES,IC50 (ML1 Receptor) [µM],IC50 [1] [µM]
"COc1ccc2c(c1)C(CCNC(=O)C1CC1)CCC2 (centres unmarked) [Example 3, N-[2-(7-Methoxy-1,2,3,4-tetrahydro-1-naphthalenyl)ethyl]cyclopropane carboxamide]",< 0.1,
"CCCC(=O)NCCC1CCc2ccc(F)cc21 (centres unmarked) [Example 31, N-[2-(6-Fluoro-2,3-dihydro-1H-inden-1-yl)ethyl]butanamide]",< 0.1,
"COc1ccc2c(c1)C(CCNC(C)=O)CC2 (centres unmarked) [Example 25, N-[2-(2,3-Dihydro-6-methoxy-1H-inden-1-yl)-ethyl]acetamide]",< 0.1,
"CCCC(=O)NCCC1CCc2ccc(OC)cc21 (single isomer, unassigned; (+)) [Example 37]",,0.1 to 0.5
"COc1ccc2c(c1)C(CCNC(C)=O)CC2(C)C (centres unmarked) [Example 32, N-[2-(2,3-Dihydro-6-methoxy-3,3-dimethyl-1H-inden-1-yl)ethyl]acetamide]",0.1 to 0.5,
"CCCC(=O)NCCC1CCc2ccc(OC)cc21 (single isomer, unassigned; (-)) [Example 36]",< 0.1,< 0.1
"COc1ccc2c(c1)C(CCNC(=O)C1CC1)CC2 (centres unmarked) [Example 24, N-[2-(2,3-Dihydro-6-methoxy-1H-inden-1-yl)-ethyl]cyclopropane carboxamide]",< 0.1,
"COCC(=O)NCCC1CCCc2ccc(OC)cc21 (centres unmarked) [Example 16, N-[2-(7-Methoxy-1,2,3,4-tetrahydro-1-naphthalenyl)ethyl]-2-methoxyacetamide]",< 0.1,
"CCCC(=O)NCCC1CCc2ccc(C(=O)OC)cc21 (centres unmarked) [Example 42, N-[2-(2,3-Dihydro-6-methoxycarbonyl-1H-inden-1-yl)ethyl]butanamide]",< 0.1,
"CCCC(=O)NCCC1CCc2ccc(OC(F)F)cc21 (centres unmarked) [Example 45, N-[2-(6-Difluoromethoxy-2,3-dihydro-1H-inden-1-yl)ethyl]butanamide]",,< 0.1
"CCCC(=O)NCCC1CCCc2ccc(OC)cc21 (centres unmarked) [Example 1, N-[2-(7-Methoxy-1,2,3,4-tetrahydro-1-naphthalenyl)ethyl]butanamide]",< 0.1,
"COc1ccc2c(c1)C(CCNC(C)=O)CCC2 (centres unmarked) [Example 4, N-[2-(7-Methoxy-1,2,3,4-tetrahydro-1-naphthalenyl)ethyl]acetamide]",< 0.1,
"CCCC(=O)NCCC1CCc2ccc(OC)cc21 (centres unmarked) [Example 22, N-[2-(2,3-Dihydro-6-methoxy-1H-inden-1-yl)-ethyl]butanamide]",< 0.1,
"COCC(=O)NCCC1CCCc2ccc(OC)cc21 (single isomer, unassigned; (+)) [Example 39, (+)-N-[2-(1,2,3,4-tetrahydro-7-methoxynaphthalen-1-yl)ethyl] methoxyacetamide]",< 0.1,≥ 0.5
"CCCC(=O)NCCC1CC(C)(C)c2ccc(OC)cc21 (centres unmarked) [Example 33, N-[2-(2,3-Dihydro-6-methoxy-3,3-dimethyl-1H-inden-1-yl)ethyl]butanamide]",0.1 to 0.5,
"COCC(=O)NCCC1CCCc2ccc(OC)cc21 (single isomer, unassigned; (-)) [Example 38, (-)-N-[2-(1,2,3,4-tetrahydro-7-methoxynaphthalen-1-yl)ethyl] methoxyacetamide]",< 0.1,< 0.1
"CCCCCCCCCCCCOc1ccc2c(c1)C(CCNC(=O)CCC)CC2 (centres unmarked) [Example 43, N-[2-(2,3-Dihydro-6-dodecyloxy-1H-inden-1-yl)ethyl]butanamide]",,< 0.1
